Assay results from the supplement of paper PMC10307832.

Experiments:
Test in all cases: relative viability (nuclei count vs DMSO), 5 days (fraction); higher = more cells survive
XMD8-85 + Pemetrexed = compound: CN1CCN(CC1)C2=CC(=C(C=C2)NC3=NC=C4C(=N3)N(C5=CC=CC=C5C(=O)N4C)C)OC [XMD8-85] + Nc1nc2[nH]cc(CCc3ccc(C(=O)N[C@@H](CCC(=O)O)C(=O)O)cc3)c2c(=O)[nH]1 [Pemetrexed] (partner 0.2 µM)
Method in brief: (§1)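 Lung cancer cell lines in 1536-well plates got either a single drug or a fixed anchor-drug dose together with five library-drug doses (not always all listed) in √10 steps, by pin tool, on the day after seeding. Nuclei were counted after 5 days, and relative viability is the treated-to-vehicle ratio of nuclei counts. Values are medians of duplicate plates.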

4EGI-1 + Trametinib = compound: O=C(O)C(Cc1ccccc1[N+](=O)[O-])=NNc1nc(-c2ccc(Cl)c(Cl)c2)cs1 (mixture of isomers) [4EGI-1] + CC(=O)Nc1cccc(-n2c(=O)n(C3CC3)c(=O)c3c(Nc4ccc(I)cc4F)n(C)c(=O)c(C)c32)c1 [Trametinib] (partner 0.02 µM)
Method in brief: as §1

4EGI-1 + Foretinib = compound: O=C(O)C(Cc1ccccc1[N+](=O)[O-])=NNc1nc(-c2ccc(Cl)c(Cl)c2)cs1 (mixture of isomers) [4EGI-1] + COc1cc2c(Oc3ccc(NC(=O)C4(C(=O)Nc5ccc(F)cc5)CC4)cc3F)ccnc2cc1OCCCN1CCOCC1 [Foretinib] (partner 0.25 µM)
Method in brief: as §1

4EGI-1 + Pemetrexed = compound: O=C(O)C(Cc1ccccc1[N+](=O)[O-])=NNc1nc(-c2ccc(Cl)c(Cl)c2)cs1 (mixture of isomers) [4EGI-1] + Nc1nc2[nH]cc(CCc3ccc(C(=O)N[C@@H](CCC(=O)O)C(=O)O)cc3)c2c(=O)[nH]1 [Pemetrexed] (partner 0.2 µM)
Method in brief: as §1

Row | Cell Line | relative viability (XMD8-85 + Pemetrexed; first compound 0.08 µM) | relative viability (XMD8-85 + Pemetrexed; first compound 0.253 µM) | relative viability (XMD8-85 + Pemetrexed; first compound 0.8 µM) | relative viability (XMD8-85 + Pemetrexed; first compound 2.53 µM) | relative viability (XMD8-85 + Pemetrexed; first compound 8 µM) | relative viability (4EGI-1 + Trametinib; first compound 0.5 µM) | relative viability (4EGI-1 + Trametinib; first compound 1.581 µM) | relative viability (4EGI-1 + Trametinib; first compound 5 µM) | relative viability (4EGI-1 + Trametinib; first compound 15.81 µM) | relative viability (4EGI-1 + Trametinib; first compound 50 µM) | relative viability (4EGI-1 + Foretinib; first compound 0.5 µM) | relative viability (4EGI-1 + Foretinib; first compound 1.581 µM) | relative viability (4EGI-1 + Foretinib; first compound 5 µM) | relative viability (4EGI-1 + Foretinib; first compound 15.81 µM) | relative viability (4EGI-1 + Foretinib; first compound 50 µM) | relative viability (4EGI-1 + Pemetrexed; first compound 0.5 µM) | relative viability (4EGI-1 + Pemetrexed; first compound 1.581 µM) | relative viability (4EGI-1 + Pemetrexed; first compound 5 µM) | relative viability (4EGI-1 + Pemetrexed; first compound 15.81 µM) | relative viability (4EGI-1 + Pemetrexed; first compound 50 µM)
1 | 201T | 0.329 | 0.329 | 0.368 | 0.325 | 0.288 | 0.714 | 0.705 | 0.742 | 0.744 | 0.636 | 1.2 | 0.861 | 1.18 | 0.985 | 0.63 | 0.338 | 0.368 | 0.387 | 0.334 | 0.348
2 | A549 |  |  |  |  |  |  |  |  |  |  | 1.01 | 0.771 | 0.996 | 0.883 | 0.697 |  |  |  |  | 
3 | A-427 | 1.09 | 1.02 | 1.08 | 1.1 | 0.754 | 0.891 |  | 0.774 | 0.742 | 0.384 | 1.16 | 0.944 | 0.983 | 0.867 | 0.646 | 0.982 |  | 0.99 | 0.838 | 0.228
4 | ABC-1 |  |  |  |  |  |  |  |  |  |  | 1.21 | 0.896 | 1.17 | 0.587 | 0.271 |  |  |  |  | 
5 | BEN | 0.811 | 0.771 | 0.696 | 0.735 | 0.474 | 1.32 | 1.05 | 1.18 | 0.976 | 0.901 | 0.694 | 0.474 | 0.781 | 0.753 | 0.524 | 0.814 | 0.785 | 0.772 | 0.622 | 0.432
6 | CAL-12T | 0.956 | 1.15 |  | 0.862 | 0.681 | 0.348 |  | 0.358 | 0.281 | 0.191 | 1.11 | 0.857 | 1.08 | 1.07 | 0.589 | 1.21 |  | 1.25 | 1.14 | 0.86
7 | COR-L23 | 0.187 | 0.2 | 0.199 | 0.187 | 0.18 | 0.898 | 0.336 | 0.628 | 0.415 | 0.16 | 1.08 | 0.728 | 0.98 | 0.736 | 0.29 | 0.223 | 0.189 | 0.194 | 0.204 | 0.215
8 | COR-L 105 | 1.01 | 1.16 | 1.21 | 0.816 | 0.58 | 0.462 | 0.444 | 0.44 | 0.401 | 0.394 | 0.983 | 0.172 | 0.993 | 0.863 | 0.728 | 1.2 | 0.996 | 1.14 | 0.905 | 0.98
9 | Calu-6 |  |  |  |  |  |  |  |  |  |  | 0.933 | 0.717 | 0.919 | 0.912 | 0.659 |  |  |  |  | 
10 | ChaGo-K-1 | 0.276 | 0.268 | 0.26 | 0.248 | 0.232 | 0.911 | 0.845 | 0.896 | 0.942 | 0.592 | 0.942 | 0.935 | 0.816 | 0.975 | 0.799 | 0.26 | 0.266 | 0.269 | 0.267 | 0.265
11 | EBC-1 |  |  |  |  |  |  |  |  |  |  | 0.0952 | 0.0989 | 0.0859 | 0.0982 | 0.103 |  |  |  |  | 
12 | EKVX | 0.276 | 0.347 | 0.382 |  | 0.381 | 0.436 |  | 0.351 | 0.239 | 0.268 | 1.08 | 0.121 | 0.925 | 0.686 | 0.815 | 0.418 |  | 0.407 | 0.325 | 0.368
13 | EMC-BAC-2 | 0.391 | 0.423 | 0.45 | 0.411 | 0.376 | 0.989 |  | 0.928 | 0.878 | 0.652 | 1.2 | 0.907 | 1.04 | 0.936 | 0.984 | 0.418 |  | 0.466 | 0.482 | 0.323
14 | EPLC-272H | 0.279 | 0.318 | 0.314 | 0.223 | 0.36 | 0.308 |  | 0.339 | 0.249 | 0.226 | 0.721 |  | 0.735 | 1.26 | 0.132 | 0.372 | 0.304 | 0.322 | 0.29 | 0.245
15 | H3255 | 0.558 |  | 0.525 | 0.599 | 0.375 | 0.679 |  | 0.614 |  | 0.523 | 0.982 | 0.788 | 0.907 | 0.775 | 0.823 | 0.598 | 0.574 | 0.524 | 0.453 | 0.395
16 | HARA | 0.26 | 0.227 | 0.307 | 0.295 | 0.229 | 0.882 | 0.632 | 0.944 | 0.539 | 0.211 | 0.979 | 0.806 | 0.965 | 0.76 | 0.175 | 0.266 | 0.273 | 0.333 | 0.238 | 0.223
17 | HCC-15 | 0.202 | 0.216 | 0.212 | 0.207 | 0.187 | 0.405 | 0.378 | 0.392 | 0.375 | 0.281 | 1.07 |  | 1.11 | 0.94 | 0.481 | 0.231 | 0.22 | 0.204 | 0.198 | 0.212
